Assay results: ChEMBL document CHEMBL1155647, “New eudesmane sesquiterpenes from Plectranthus cylindraceus” (J Nat Prod, 2000)
Calls of active or inactive are those of the source.

Tests used:
Bacillus subtilis = assay: Antimicrobial activity against Bacillus subtilis ATCC 6633 at 100 ug/mL by agar dilution assay; assay type: functional, organism-based
Candida albicans = assay: Antimicrobial activity against Candida albicans ATCC 10231 at 100 ug/mL by agar dilution assay; assay type: functional, organism-based
Escherichia coli = assay: Antimicrobial activity against Escherichia coli ATCC 25922 at 100 ug/mL by agar dilution assay; assay type: functional, organism-based
Staphylococcus aureus = assay: Antimicrobial activity against Staphylococcus aureus ATCC 29213 at 100 ug/mL by agar dilution assay; assay type: functional, organism-based
Pseudomonas aeruginosa = assay: Antimicrobial activity against Pseudomonas aeruginosa ATCC 15442 at 100 ug/mL by agar dilution assay; assay type: functional, organism-based
[1] = test system: Mycolicibacterium smegmatis; assay: Antimicrobial activity against Mycobacterium smegmatis ATCC 35797 at 100 ug/mL by agar dilution assay; assay type: functional, organism-based
NCI-H460 = assay: Anticancer activity against human NCI-H460 cells; assay type: functional, cell-based
SF-268 = assay: Anticancer activity against human SF268 cells; assay type: functional, cell-based
MCF7 = assay: Anticancer activity against human MCF7 cells; assay type: functional, cell-based

Measured: Activity

COc1ccc(-c2oc3cc(OC)c(OC)c(O)c3c(=O)c2OC)cc1O
not listed: NCI-H460 | SF-268 | MCF7
inactive: all other assays above

CC(=O)OC[C@@]12CC[C@@H](C(C)C)[C@@H](O)[C@@H]1C(C)=CC(=O)C2
not listed: NCI-H460 | SF-268 | MCF7
inactive: all other assays above

COc1cc2oc(-c3ccc(O)c(O)c3)c(OC)c(=O)c2c(O)c1OC
not listed: NCI-H460 | SF-268 | MCF7
inactive: all other assays above

CC(=O)O[C@@H]1[C@H](C(C)C)CC[C@@]2(CO)CC(=O)C=C(C)[C@@H]12
inactive: all assays above

CC(=O)OC[C@@]12CC[C@@H](C(C)C)[C@@H](OC(C)=O)[C@@H]1C(C)=CC(=O)C2
inactive: all assays above

COc1cc(O)c2c(=O)c(OC)c(-c3ccc(O)c(OC)c3)oc2c1
not listed: NCI-H460 | SF-268 | MCF7
inactive: all other assays above
